Test results taken from PubChem BioAssay (NCI).
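Tested at 5 concentrations; 48 h exposure; 96-well plates; endpoints linearly interpolated, else capped at highest concentration. At the TGI there is no net growth.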

Columns and labels:
Assay in all cases: NCI-60 cell line screen, 48 h
SNB-19 CNS = test system: SNB-19 CNS
MCF7 breast = test system: MCF7 breast
U251 CNS = test system: U251 CNS
SK-MEL-28 melanoma = test system: SK-MEL-28 melanoma
HS 578T breast = test system: HS 578T breast
MALME-3M melanoma = test system: MALME-3M melanoma
HL-60(TB) leukemia = test system: HL-60(TB) leukemia
HCC-2998 colon = test system: HCC-2998 colon
A549 NSCLC = test system: A549 NSCLC
IGROV1 ovarian = test system: IGROV1 ovarian
HCT-15 colon = test system: HCT-15 colon
K-562 leukemia = test system: K-562 leukemia
DU-145 prostate = test system: DU-145 prostate
NCI-H23 lung = test system: NCI-H23 lung
SF-295 CNS = test system: SF-295 CNS
HCT-116 colon = test system: HCT-116 colon
UO-31 renal = test system: UO-31 renal
MDA-MB-231 breast = test system: MDA-MB-231 breast
T-47D breast = test system: T-47D breast
NCI-H460 lung = test system: NCI-H460 lung
UACC-257 melanoma = test system: UACC-257 melanoma
OVCAR-5 ovarian = test system: OVCAR-5 ovarian
MDA-N = test system: MDA-N
HOP-92 NSCLC = test system: HOP-92 NSCLC
UACC-62 melanoma = test system: UACC-62 melanoma
OVCAR-8 ovarian = test system: OVCAR-8 ovarian
TK-10 renal = test system: TK-10 renal
HT29 colon = test system: HT29 colon
NCI-H522 lung = test system: NCI-H522 lung
786-0 renal = test system: 786-0 renal
KM12 colon = test system: KM12 colon
OVCAR-4 ovarian = test system: OVCAR-4 ovarian
SNB-75 CNS = test system: SNB-75 CNS
SN12C renal = test system: SN12C renal
RPMI-8226 leukemia = test system: RPMI-8226 leukemia
MDA-MB-435 = test system: MDA-MB-435
NCI/ADR-RES ovarian = test system: NCI/ADR-RES ovarian
MOLT-4 leukemia = test system: MOLT-4 leukemia
SK-MEL-5 melanoma = test system: SK-MEL-5 melanoma
BT-549 breast = test system: BT-549 breast
CAKI-1 renal = test system: CAKI-1 renal
SK-MEL-2 melanoma = test system: SK-MEL-2 melanoma
SK-OV-3 ovarian = test system: SK-OV-3 ovarian
A498 renal = test system: A498 renal
COLO 205 colon = test system: COLO 205 colon
NCI-H226 lung = test system: NCI-H226 lung
HOP-62 NSCLC = test system: HOP-62 NSCLC
SF-268 CNS = test system: SF-268 CNS
SW-620 colon = test system: SW-620 colon
EKVX NSCLC = test system: EKVX NSCLC
RXF 393 renal = test system: RXF 393 renal
M14 melanoma = test system: M14 melanoma
LOX IMVI melanoma = test system: LOX IMVI melanoma
ACHN renal = test system: ACHN renal
SF-539 CNS = test system: SF-539 CNS
OVCAR-3 ovarian = test system: OVCAR-3 ovarian
PC-3 prostate = test system: PC-3 prostate
CCRF-CEM leukemia = test system: CCRF-CEM leukemia
SR leukemia = test system: SR leukemia

CN(C)CCNc1nc2ccccc2c2c1CCCC2
TGI (SNB-19 CNS): > 100 µM | TGI (MCF7 breast): 29.1 µM | TGI (U251 CNS): 37 µM | TGI (SK-MEL-28 melanoma): 39.6 µM | TGI (HS 578T breast): > 100 µM | TGI (MALME-3M melanoma): 30.1 µM | TGI (HL-60(TB) leukemia): 32.3 µM | TGI (HCC-2998 colon): 25.6 µM | TGI (A549 NSCLC): > 100 µM | TGI (IGROV1 ovarian): 38.3 µM | TGI (HCT-15 colon): > 100 µM | TGI (K-562 leukemia): 39.9 µM | TGI (DU-145 prostate): > 100 µM | TGI (NCI-H23 lung): > 100 µM | TGI (SF-295 CNS): 31.1 µM | TGI (HCT-116 colon): 30.2 µM | TGI (UO-31 renal): 27.5 µM | TGI (MDA-MB-231 breast): 33.6 µM | TGI (T-47D breast): 40.4 µM | TGI (NCI-H460 lung): 31 µM | TGI (UACC-257 melanoma): 29.3 µM | TGI (OVCAR-5 ovarian): > 100 µM | TGI (MDA-N): 33.9 µM | TGI (HOP-92 NSCLC): 58.3 µM | TGI (UACC-62 melanoma): 31.1 µM | TGI (OVCAR-8 ovarian): > 100 µM | TGI (TK-10 renal): 29.7 µM | TGI (HT29 colon): 95.1 µM | TGI (NCI-H522 lung): 33.1 µM | TGI (786-0 renal): 34.2 µM | TGI (KM12 colon): 41.4 µM | TGI (OVCAR-4 ovarian): > 100 µM | TGI (SNB-75 CNS): 56.3 µM | TGI (SN12C renal): 89.2 µM | TGI (RPMI-8226 leukemia): 46.7 µM | TGI (MDA-MB-435): 36.1 µM | TGI (NCI/ADR-RES ovarian): > 100 µM | TGI (MOLT-4 leukemia): 61.8 µM | TGI (SK-MEL-5 melanoma): 32.4 µM | TGI (BT-549 breast): > 100 µM | TGI (CAKI-1 renal): 44.7 µM | TGI (SK-MEL-2 melanoma): 32.5 µM | TGI (SK-OV-3 ovarian): 42.9 µM | TGI (A498 renal): 35.8 µM | TGI (COLO 205 colon): > 100 µM | TGI (NCI-H226 lung): 55.7 µM | TGI (HOP-62 NSCLC): 35.8 µM | TGI (SF-268 CNS): > 100 µM | TGI (SW-620 colon): 86 µM | TGI (EKVX NSCLC): > 100 µM | TGI (RXF 393 renal): 22.9 µM | TGI (M14 melanoma): 32.5 µM | TGI (LOX IMVI melanoma): 34.7 µM | TGI (ACHN renal): 65.3 µM | TGI (SF-539 CNS): > 100 µM | TGI (OVCAR-3 ovarian): > 100 µM | TGI (PC-3 prostate): > 100 µM

COc1ccc(NC(=S)N/N=C\c2ccc(NC(C)=O)cc2)cc1
TGI (SNB-19 CNS): > 100 µM | TGI (U251 CNS): > 100 µM | TGI (SK-MEL-28 melanoma): > 100 µM | TGI (HS 578T breast): > 100 µM | TGI (MALME-3M melanoma): > 100 µM | TGI (HL-60(TB) leukemia): > 100 µM | TGI (HCC-2998 colon): > 100 µM | TGI (A549 NSCLC): > 100 µM | TGI (IGROV1 ovarian): > 100 µM | TGI (DU-145 prostate): > 100 µM | TGI (NCI-H23 lung): > 100 µM | TGI (SF-295 CNS): > 100 µM | TGI (HCT-116 colon): > 100 µM | TGI (UO-31 renal): > 100 µM | TGI (MDA-MB-231 breast): > 100 µM | TGI (T-47D breast): > 100 µM | TGI (NCI-H460 lung): > 100 µM | TGI (UACC-257 melanoma): > 100 µM | TGI (OVCAR-5 ovarian): > 100 µM | TGI (MDA-N): > 100 µM | TGI (HOP-92 NSCLC): > 100 µM | TGI (UACC-62 melanoma): > 100 µM | TGI (TK-10 renal): > 100 µM | TGI (HT29 colon): > 100 µM | TGI (NCI-H522 lung): > 100 µM | TGI (786-0 renal): > 100 µM | TGI (KM12 colon): > 100 µM | TGI (OVCAR-4 ovarian): > 100 µM | TGI (SNB-75 CNS): > 100 µM | TGI (SN12C renal): > 100 µM | TGI (RPMI-8226 leukemia): > 100 µM | TGI (MDA-MB-435): > 100 µM | TGI (CCRF-CEM leukemia): > 100 µM | TGI (MOLT-4 leukemia): > 100 µM | TGI (SK-MEL-5 melanoma): > 100 µM | TGI (BT-549 breast): > 100 µM | TGI (CAKI-1 renal): > 100 µM | TGI (SK-MEL-2 melanoma): > 100 µM | TGI (SK-OV-3 ovarian): > 100 µM | TGI (COLO 205 colon): > 100 µM | TGI (HOP-62 NSCLC): > 100 µM | TGI (SW-620 colon): > 100 µM | TGI (EKVX NSCLC): > 100 µM | TGI (SR leukemia): > 100 µM | TGI (M14 melanoma): > 100 µM | TGI (LOX IMVI melanoma): > 100 µM | TGI (ACHN renal): > 100 µM | TGI (OVCAR-3 ovarian): > 100 µM | TGI (PC-3 prostate): > 100 µM
